In patent US20080009025A1, “PROTEIN KINASE REGULATION” (priority 1999, published 2008):
Where a SMILES comes first, the peptide text is derived from it.

Columns and labels:
[1] = tested on: PDK1; experiment: Activation of AGC kinase substrates by PDK1 (Crosstide assay); assay type: biochemical, human; settings: for inhibition of the activation of S6K1-T2[T412E] and SGK1[T422D] by PDK1 PIF pocket mutants: PDK1[K115A], [I119A], [Q150A], [L155A]
Experimental: FIG. 20. Effect of PIFtide on the activation of S6K1 and SGK1 by PDK1 PIF pocket mutants (155A, 115A, 119A, 150A). GST-PDK1, GST-PDK1 L155E, 155A, 115A, 119A and 150A were tested for their ability to activate His-S6K1 412E and GST-SGK1 422D. The phosphorylation and activation of substrates was performed as described in FIG. 17. When PIFtide was included in the reaction, it was pre-incubated on ice for ˜15 min until the reaction was initiated with the addition of ATP-Mg.
Activation of AGC kinase PDK1 substrates. Phosphorylation reactions were carried out as above except that non-radioactive ATP replaced [γ-^32P]ATP. Following 10 min at 30° C., cocktail (30 μl) containing 50 mM Tris-HCl pH 7.5, 0.1% (by vol) 2-mercaptoethanol, 10 mM magnesium chloride, […], 0.5 μM microcystin-LR and 100 μM peptide substrate crosstide (GRPRTSSFAEG) and [γ-^32P]ATP (˜600 c.p.m./pmol). Reactions were stopped by the addition of 25 μl of 0.2 M EDTA pH 8.0, spotted onto P81 phosphocellulose paper, washed and analysed as described for the assay of MAP kinase. The amount of PDK1 was in the assay was varied so that the assay was in the linear range. One unit of activity is deficed as phosphorylation 1 nmol of substrate in 1 min.

[2] = tested on: p70 S6K; experiment: IGF1-induced activation and Thr412 phosphorylation of HA-p70 S6K in co-transfected 293 cells; assay type: cell-based, human
Experimental: FIG. 3. PIF inhibits p70 S6K activation and phosphorylation at Thr252 and Thr412. 293 cells were co-transfected with constructs expressing the wild type (wt) full length HA-p70 S6K (A) or the full length HA-T412E p70 S6K (B) with either GST-PIF, GST-F977A-PIF, or GST. 24 h post transfection the cells were serum starved for 16 h and them stimulated for 40 min with 100 nM IGF 1. The cells were lysed and HA-p70 S6K was immunoprecipitated and assayed as described in methods. Protein from each lysate (10 μg for the HA blots or 20 μg for the T412-P blot) was electrophoresed on a 10% SDS/polyacrylamide gel and immunoblotted using HA-antibody or the T412-P antibody. The T412-P antibody was incubated with either the synthetic peptide (10 μg/ml) corresponding to residues 401 to 418 of p70 S6K phosphorylated at Thr412 (phosph-412E peptide), or the unphosphorylated peptide (de-phospho-Thr412 peptide). The T412-P antibody consistently recognises a protein termed “non specific band” in cell lysates which migrate at (75 kDa) derived from non transfected and transfected cells. […] It is not co-immunoprecipitated with HA-p70 S6K (date not shown). The HA-p70 S6K activities shown are the average ±SEM for a single experiment carried out in triplicate. Similar results were obtained in 8 separate experiments (A) and 2 experiments (B). The immunoblotting was carried out in 3 separate experiments with similar results.
Transient Transfection Experiments. The DNA constructs encoding for the wild type and mutant forms of HA-p70 S6K in the pMT2 vector used in this study have been described previously. […] The constructs used to express GST-PIF and the mutant GST-F977A-PIF [22] are in the pEBG2T vector. The empty pEBG2T vector was used to express GST protein in control experiments. DNA constructs used in this study were purified from bacteria using the Qiagen plasmid Mega kit according to the manufacturer's protocol.
293 cells cultured on 10 cm diameter dishes in Dulbecco's Modified Eagle's Medium containing 10% (by vol) foetal bovine serum, were transfected with 2 μg of DNA construct encoding either wild type or mutant HA-p70 S6K or HA-PKBα, and 10 μg of DNA construct encoding either GST-PIF, GST-F977A-PIF, GST, Myc-PDK1, kinase-dead Myc-PDK1, or the empty pCMV5 vector using a modified calcium phosphate method. 24 h post transfection the cells were deprived of serum for 16 h, and exposed to IGF1 (100 nM) for the time indicated. The cells were lysed in 1 ml of lysis buffer (50 mM Tris/HCl pH 7.5, 1 mM EDTA, 1 mM EGTA, 1% (by vol) Triton X-100, 1 mM sodium orthovanadate, 10 mM sodium β-glycerophosphate, 50 mM NaF, 5 mM sodium pyrophosphate, 1 μM microcystin-LR, 0.27 M sucrose and protease cocktail tablets), cleared by centrifugation, and 50 μg of protein was subjected to immunoprecipitation with anti HA monoclonal antibody. The protein concentrations of the lysates were determined by the Bradford method.
Kinase assays. The HA-p70 S6K or HA-PKBα immunoprecipitates were washed and assayed for kinase activity using the peptide Crosstide (GRPRTSSFAEG) as described previously for PKBα [28]. One unit of activity, U, was that amount which catalysed the phosphorylation of 1 nmol of substrate in one minute.
Immunoblotting for dephosphorylated and Thr412-phosphorylated p70 S6 kinase. Cell lysates were made 1% SDS and the indicated amounts of protein were subjected to SDS/Polyacrylamide gel electrophoresis, subsequently transferred to nitrocellulose and immunoblotted using the indicated monoclonal antibody or the T412-P phospho-specific antibody (0.4 μg/ml) in 50 mM Tris/HCl pH7.5, 0.15M NaCl, 0.5% (by vol) Tween and 10% (by mass) skimmed milk. Detection was performed using the enhanced chemiluminescence reagent (Amersham Pharmacia Biotech).

CC[C@H](C)[C@H](NC(=O)[C@H](Cc1ccc(O)cc1)NC(=O)[C@H](CC(=O)O)NC(=O)[C@H](Cc1ccccc1)NC(=O)[C@H](CC(=O)O)NC(=O)[C@H](CCCNC(=N)N)NC(=O)[C@H](Cc1ccccc1)NC(=O)[C@H](CCSC)NC(=O)[C@H](CCC(=O)O)NC(=O)[C@H](CCC(N)=O)NC(=O)[C@H](CCC(=O)O)NC(=O)[C@H](CCC(=O)O)NC(=O)[C@H](CCC(=O)O)NC(=O)[C@H](CO)NC(=O)[C@H](CC(C)C)NC(=O)[C@@H](NC(=O)[C@H](CCCNC(=N)N)NC(=O)[C@@H]1CCCN1C(=O)[C@H](CCC(=O)O)NC(=O)[C@@H](N)CCCNC(=N)N)[C@@H](C)CC)C(=O)N[C@@H](C)C(=O)N[C@@H](CC(=O)O)C(=O)N[C@@H](Cc1c[nH]c2ccccc12)C(=O)N[C@@H](CS)C(=O)O [PIFtide] (H-REPRILSEEEQEMFRDFDYIADWC-OH; N-terminus and C-terminus assumed)
inhibition of the activation of S6K1[T412E] by wild type PDK1 ([1]; 2 μM PIFtide): > 20 fold | inhibition of the activation of S6K1-T2[T412E] and SGK1[T422D] by PDK1 PIF pocket mutants ([1]; 2 μM PIFtide): ~50% | inhibition of the activation of S6K1-T2[T412E] and SGK1[T422D] by PDK1 PIF pocket mutants ([1]; 35 μM PIFtide): over 95% | PDK1's ability to phosphorylate and activate SGK1, ΔPH-PKBα, S6K1[T412E], SGK1[T422D] and ΔPH-PKBα[S473D] ([1]; in the presence of PIFtide): markedly inhibited

GST-PIF: glutathione S-transferase fused to the last 77 residues of PRK2 (PIF)
basal HA-p70 S6K activity ([2]; 293 cells co-expressing HA-p70 S6K, unstimulated): virtually undetectable | HA-p70 S6K activity after IGF1 stimulation ([2]; 293 cells, 100 nM IGF1 40 min): only a very slight increase | IGF1-induced phosphorylation of HA-p70 S6K at Thr412 ([2]; 293 cells, T412-P antibody): failed to induce | IGF1 induced activation and phosphorylation at Thr412 of the p70 S6K-T2 mutant ([2]; 293 cells, data not shown): abolished
